Measured values reported in PMC8834506, “Optimization of Thymidine Kinase-Based Safety Switch for Neural Cell Therapy” (Cells, 2022).
Where two headings read alike, the source gives them in different places.

Experiments:
[1] = system: non-transduced hESC colonies; assay: Morphology and size of hESC colonies upon nucleoside treatment; format: cell-based, human
Excerpt: We next investigated the impact of ACV, PCV, and GCV on non-transduced hESC and neuroprogenitors (proliferating ReNcells). […] To further understand the impact of nucleoside analogs on non-transduced cells, we performed γ-H2A.X immunostaining (Figure 6B). There was a graded response, virtually identical in hESC and in neuroprogenitors. […] In addition, we investigated the morphology and size of non-transduced hESC colonies upon nucleoside treatment. […] Taken together, our findings confirm considerable toxicity of GCV, even in the absence of viral TK. Note that this was not the case for PCV despite the fact that it is a potent inducer of cell death in thymidine kinase-expressing cells.
(§1) Cells were exposed to 100 µM of the respective nucleoside for 48 h. DNA damage was monitored using γ-H2A.X marker in yellow and nuclei were counterstained with Hoechst. The white box in the first column indicates the area of the zoom for the hESC colonies.

non-transduced hESC = format: cell-based; conditions: 96 h nucleoside exposure; up to 100 µM
Method: as §1
(§2) Plates were washed twice with DMEM-F12 (Gibco, ThermoFisher; Geneva, Switzerland), then coated with Matrigel (Corning, Lonay, Switzerland) 1/100 in DMEM-F12 and incubate 2 h at 37°. Cells were detached using Accutase and seeded at 2000 cells/well in serum-free culture medium containing 10 µM of ROCK inhibitor. At 24 h, the cell culture was continued without ROCK inhibitor. […] Drugs were prepared by serial dilution (two-fold) in 100% DMSO. At 48 h after seeding, cells were exposed to antiviral drugs for 96 h. For EC50 assays, the medium was changed daily for 4 days, then cell viability was assessed using an ATP-based assay. EC50 values for each construct were calculated using a four parameters equation (GraphPad, Prism8, San Diego, CA, USA). The same procedure was used for the cell death kinetic determinations except the treatment duration. Luminescence was measured using Spectra L384/L96 (0.2 sec exposure, Molecular devices, Biberach an der Riß, Germany).

[2] = system: ReNcells Ubi-SR39h (proliferating); assay: ATP-based assay, EC50 in proliferating neural progenitors; format: cell-based; conditions: Homo sapiens, 96 h GCV exposure
Method: (§3) We then compared the ability of GCV to kill proliferating NPC that expressed the SR39h thymidine kinase under the control of the ubiquitin (ReNcells Ubi-SR39h) or the Ki67 promoter. (ReNcells Ki67-SR39h) (Figure 4). For this purpose, we first performed a dose response to GCV on undifferentiated NPC. […] We then explored the kinetic of cell death with the suicide enzyme driven either by Ki67 or ubiquitin promoter for different concentrations of GCV. The rapidity of cell death induction but not its final extent was a function of the GCV concentrations. […] This was true for a short-term treatment at 24 h and 48 h, but not at the later time points at 72 h and 96 h (Figure 4D).
Figure 4 EC50 and kinetics of GCV-induced cell death in proliferating and post-mitotic ReNcells. […] Cell viability was measured every 24 h using a bioluminescent ATP-based assay (n = 3). […] Cell viability was measured using an ATP-based assay. […]
Cell culture plate (96 wells plate Corning #3907, Corning, Lonay, Switzerland) were pre-coated with 60 μL per well of Poly-L-ornithine solution (Sigma, Merk, Eysins, Switzerland) at 37 °C for 30 min. […] For EC50 assays, the medium was changed daily for 4 days, then cell viability was assessed using an ATP-based assay. EC50 values for each construct were calculated using a four parameters equation (GraphPad, Prism8, San Diego, CA, USA). […]

[3] = 10 mg/kg/day; cited from earlier work
[4] = system: hESC (HS420) expressing Ki67-SR39h; assay: ATP-based cell survival assay, nucleoside-induced cell death; conditions: for EC50: Homo sapiens, 96 h
[5] = system: ReNcell wt (non-transduced proliferating ReNcells); assay: cells; format: cell-based; conditions: Homo sapiens; 96 h GCV exposure; read-out: EC50 of GCV, killing of non-transduced proliferating ReNcells
Method: as §1, §2

[6] = system: sister chromatid exchange; design: method as in PMID 10719044; conditions: at concentrations far below those impairing the proliferative activity; cited from earlier work
[7] = system: ReNcells Ki67-SR39h (proliferating); assay: ATP-based assay, EC50 and kinetics of cell death in proliferating neural progenitors; design: species or system human; conditions: for EC50: Homo sapiens, 96 h GCV exposure
Method: as §3
Figure 4 EC50 and kinetics of GCV-induced cell death in proliferating and post-mitotic ReNcells. SR39h was expressed in ReNcells (immortalized neural precursor cells that can be differentiated to post-mitotic neurons) under the control of the two different promoters: Ki67 or ubiquitin. Wild type ReNcells were used as control. […] (B–D) Kinetics of cell death of SR39-expressing ReNcells cells either under the control of cycle promoter Ki67 or ubiquitin promoter with increasing GCV concentrations of 1, 10, and 100 µM. Cell viability was measured every 24 h using a bioluminescent ATP-based assay (n = 3). (E) ReNcells were differentiated toward post-mitotic neurons for 21 days then treated with GCV for 10 days. Cell viability was measured using an ATP-based assay. Results are mean + SD of three independent experiments performed in triplicates. (F) Immunostaining, Hoechst in blue and Beta III tubulin (βIII tub) in green, ReNcells were differentiated toward neurons for 21 days, then treated with 10 µM of GCV during 10 days. TEXT PRINTED IN THE PICTURE: (A) GCV: ReNcell wt: 1.2 x 10^-5; ReNcell Ki67-SR39h: 2.1 x 10^-9; ReNcell Ki67-SR39h: 2.1 x 10^-9 DOUBTS OF THE COPYIST ABOUT THIS PICTURE: Panel A table: the picture prints no measure or unit for the three values. The only printed substance label is the axis title 'GCV in M', and the table rows are cell lines, so they are written as targets of the values.
Cell culture plate (96 wells plate Corning #3907, Corning, Lonay, Switzerland) were pre-coated with 60 μL per well of Poly-L-ornithine solution (Sigma, Merk, Eysins, Switzerland) at 37 °C for 30 min. […] For EC50 assays, the medium was changed daily for 4 days, then cell viability was assessed using an ATP-based assay. EC50 values for each construct were calculated using a four parameters equation (GraphPad, Prism8, San Diego, CA, USA). […] Luminescence was measured using Spectra L384/L96 (0.2 sec exposure, Molecular devices, Biberach an der Riß, Germany).

[8] = undifferentiated NPC, read-out: EC50 of GCV

SMILES: Nc1nc(O)c2ncn(COC(CO)CO)c2n1 [GCV, ganciclovir]
- Effect on morphology and size of colonies [1]: smaller colonies
- Toxicity in non-transduced hESC (non-transduced hESC): low micromolar range
- EC50 ([2]; 24-point dose response, n = 3, read-out: EC50 of GCV, ReNcell Ki67-SR39h (second line of the picture's table)): 2.1 nM
- EC50 [2, 8]: ~2.1 nM
- Side effects at the maximal recommended doses [3]: considerable side effects
- Cell death induction in SR39h-expressing cells (in words) ([4]; 96 h nucleoside exposure): strong suicide inducers
- Fold more performant than SR39 ([4]; GCV EC50, SR39h vs SR39): 10 fold
- EC50 ([4]; read-out: EC50 (cell survival), 96 h nucleoside exposure, SR39h under Ki67 promoter): 0.2 nM
- EC50 ([4]; read-out: GCV EC50 in M, 96 h GCV exposure, Ki67-SR39h): 0.19 nM
- EC50 [5]: 12000 nM
- Induction of sister chromatid exchange [6]: potent inducer of sister chromatid exchange
- Cell death induction kinetics, Ki67-SR39h compared to Ubi-SR39h ([7]; 1 μM and 10 μM GCV, measured every 24 h): no significant differences
- Cell death induction kinetics, Ki67-SR39h compared to Ubi-SR39h ([7]; 100 μM GCV, at 24 h and 48 h, not at 72 h and 96 h): slightly slower dynamic of cell death
- EC50 ([7]; 24-point dose response, n = 3, read-out: EC50 of GCV, ReNcell Ki67-SR39h): 2.1 nM
- EC50 [7, 8]: ~2.1 nM
